Structures are written as SMILES.

Experimental findings from ChEMBL document CHEMBL3091427, “The discovery of the benzazepine class of histamine H3 receptor antagonists” (Bioorg Med Chem Lett, 2013) are described below.

Data set [1] concerns the target Histamine H3 receptor (Homo sapiens, UniProt Q9Y5N1). As to the kind of experiment: Antagonist activity at human histamine H3 receptor expressed in CHOK1 cells assessed as inhibition of GTPgammaS binding by scintillation proximity assay. Type of data set: functional, cell-based, CHO-K1. On the technique in general: Binding of GTPγS marks nucleotide exchange on a G protein.

Data set [2] deals with Histamine H1 receptor (Homo sapiens, UniProt P35367). As to the kind of experiment: Antagonist activity at human recombinant histamine H1 receptor expressed in CHO cells assessed as inhibition of histamine-induced effect by FLIPR assay. The format is cell-based.
Chain of Histamine H1 receptor (P35367 whole entry): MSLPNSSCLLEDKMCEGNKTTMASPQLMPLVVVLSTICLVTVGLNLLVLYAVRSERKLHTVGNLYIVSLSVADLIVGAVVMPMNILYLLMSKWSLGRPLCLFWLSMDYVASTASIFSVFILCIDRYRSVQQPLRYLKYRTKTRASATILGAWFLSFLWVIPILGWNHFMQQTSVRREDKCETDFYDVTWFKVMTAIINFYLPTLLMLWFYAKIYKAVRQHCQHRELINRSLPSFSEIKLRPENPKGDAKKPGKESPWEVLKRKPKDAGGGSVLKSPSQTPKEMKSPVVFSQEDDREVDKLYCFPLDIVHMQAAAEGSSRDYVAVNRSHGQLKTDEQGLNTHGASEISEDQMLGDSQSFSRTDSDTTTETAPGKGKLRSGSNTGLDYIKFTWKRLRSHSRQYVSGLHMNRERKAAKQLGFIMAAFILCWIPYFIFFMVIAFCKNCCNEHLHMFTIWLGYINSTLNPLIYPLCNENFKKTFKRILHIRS
Data set [3] deals with Liver microsome. As to the kind of experiment: Intrinsic clearance in human liver microsomes. Type of data set: ADME.
In data set [4] the target is Cytochrome P450 2D6 (Homo sapiens, UniProt P10635). As to the kind of experiment: Inhibition of human CYP2D6. Type of data set: ADME.
Chain of Cytochrome P450 2D6 (P10635 whole entry): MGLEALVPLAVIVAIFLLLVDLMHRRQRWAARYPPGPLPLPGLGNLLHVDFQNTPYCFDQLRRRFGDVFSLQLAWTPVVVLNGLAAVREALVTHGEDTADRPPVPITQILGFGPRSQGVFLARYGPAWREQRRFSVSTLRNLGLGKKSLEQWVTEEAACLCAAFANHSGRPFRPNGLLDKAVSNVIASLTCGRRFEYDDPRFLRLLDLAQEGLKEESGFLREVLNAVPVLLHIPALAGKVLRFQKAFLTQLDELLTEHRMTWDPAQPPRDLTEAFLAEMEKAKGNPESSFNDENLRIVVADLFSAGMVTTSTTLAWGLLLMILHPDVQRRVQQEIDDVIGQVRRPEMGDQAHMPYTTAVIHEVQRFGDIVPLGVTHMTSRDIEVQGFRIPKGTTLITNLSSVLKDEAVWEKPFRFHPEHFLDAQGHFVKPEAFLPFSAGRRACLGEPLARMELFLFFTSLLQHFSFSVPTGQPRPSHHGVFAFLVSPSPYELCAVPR
Data set [5] relates to Liver microsome. In words: Intrinsic clearance in rat liver microsomes. The format is ADME. On the technique in general: Liver microsomes are vesicles of endoplasmic reticulum, rich in cytochrome P450 enzymes.
The subject of data set [6] is Rattus norvegicus. In words: Reversal of RAMH-induced dipsogenia in Lister Hooded rat at 3 mg/kg, po. Type of data set: functional.
Data set [7] relates to Rattus norvegicus. As to the kind of experiment: Reversal of RAMH-induced dipsogenia in Lister Hooded rat at 10 mg/kg, ip. Conditions: route intraperitoneal. The format is functional.
Data set [8] deals with Albumin (Homo sapiens, UniProt P02768). As to the kind of experiment: Binding affinity to human serum albumin. Conditions: isolated protein. Type of data set: ADME.
Chain of Albumin (P02768 whole entry): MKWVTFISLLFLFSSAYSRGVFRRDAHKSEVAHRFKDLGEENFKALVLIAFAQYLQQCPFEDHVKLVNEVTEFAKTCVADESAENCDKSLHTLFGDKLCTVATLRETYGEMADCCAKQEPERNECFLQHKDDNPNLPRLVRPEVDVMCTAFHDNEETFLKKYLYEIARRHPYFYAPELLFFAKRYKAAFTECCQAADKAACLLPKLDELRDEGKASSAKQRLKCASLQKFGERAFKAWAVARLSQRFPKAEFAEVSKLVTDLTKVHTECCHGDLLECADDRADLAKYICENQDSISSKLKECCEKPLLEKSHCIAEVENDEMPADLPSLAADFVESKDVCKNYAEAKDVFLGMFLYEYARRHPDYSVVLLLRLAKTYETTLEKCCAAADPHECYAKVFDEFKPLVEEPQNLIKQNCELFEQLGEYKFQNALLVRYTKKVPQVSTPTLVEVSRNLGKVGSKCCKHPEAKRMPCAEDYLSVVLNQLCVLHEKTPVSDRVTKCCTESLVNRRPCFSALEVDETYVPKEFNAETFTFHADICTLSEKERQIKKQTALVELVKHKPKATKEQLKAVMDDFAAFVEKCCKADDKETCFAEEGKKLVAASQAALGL
Data set [9] is described as follows: Terminal half life in iv dosed rat after 0.5 hrs. Type of data set: ADME, organism-based. The settings on record: in vivo, read-out: beta t1/2 (converted).
Data set [10] in a line: Volume of distribution at steady state in iv dosed rat after 1 hr. Type of data set: ADME, organism-based. The settings on record: in vivo, read-out: Vdss.
The nature of data set [11]: Total blood clearance in iv dosed rat after 1 hr. Type of data set: ADME, organism-based. Conditions: whole blood.
Data set [12] can be described thus: Ratio of drug level in brain to blood in Lister Hooded rat at 3 mg/kg, po after 2 hrs. Type of data set: ADME, organism-based. More on the design: dose 3 mg/kg, route oral.
Data set [13] can be described thus: Drug level in Lister Hooded rat blood at 3 mg/kg, po after 2 hrs. Conditions: whole blood, read-out: Ct. Also noted: dose 3 mg/kg, route oral. The format is ADME, organism-based.
Data set [14] is described as follows: Drug level in Lister Hooded rat brain at 3 mg/kg, po after 2 hrs. The format is ADME, organism-based. Also noted: dose 3 mg/kg, route oral. The settings on record: read-out: Ct.
The test system of data set [15] is Rattus norvegicus. As to the kind of experiment: Ex vivo binding affinity to histamine H3 receptor in po dosed Lister Hooded rat. The format is functional.
Data set [16] is described as follows: Lipophilicity, log D of the compound. Conditions: octanol/water. Type of data set: physicochemical.
Data set [17] can be described thus: Dissociation constant, pKa of the compound. Type of data set: physicochemical.
Data set [18] deals with Histamine H3 receptor (Rattus norvegicus, UniProt Q9QYN8). As to the kind of experiment: Displacement of [3H]R-alpha-methylhistamine from histamine H3 receptor in rat cerebral cortical membranes after 45 mins by liquid scintillation spectrometry. Type of data set: cell membranes. For orientation: Displacement assays read how much labelled ligand stays bound in the presence of the test substance.
Chain of Histamine H3 receptor (Rattus norvegicus, UniProt Q9QYN8) (Q9QYN8 whole entry): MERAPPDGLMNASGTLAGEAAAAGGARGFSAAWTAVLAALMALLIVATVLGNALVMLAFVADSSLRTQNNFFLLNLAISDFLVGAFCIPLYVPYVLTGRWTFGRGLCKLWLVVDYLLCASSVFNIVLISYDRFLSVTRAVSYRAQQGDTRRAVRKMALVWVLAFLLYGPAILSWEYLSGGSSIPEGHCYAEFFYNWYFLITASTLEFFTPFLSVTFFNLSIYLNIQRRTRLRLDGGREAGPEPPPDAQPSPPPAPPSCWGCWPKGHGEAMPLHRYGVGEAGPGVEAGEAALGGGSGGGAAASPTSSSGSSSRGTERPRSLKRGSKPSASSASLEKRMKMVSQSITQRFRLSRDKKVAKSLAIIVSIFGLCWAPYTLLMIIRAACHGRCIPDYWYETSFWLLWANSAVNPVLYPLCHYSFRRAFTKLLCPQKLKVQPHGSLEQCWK

Data set [19] deals with hERG (KCNH2) (Homo sapiens, UniProt Q12809). In words: Inhibition of human ERG at 10 uM by patch clamp assay.
Chain of hERG (KCNH2) (Q12809 whole entry): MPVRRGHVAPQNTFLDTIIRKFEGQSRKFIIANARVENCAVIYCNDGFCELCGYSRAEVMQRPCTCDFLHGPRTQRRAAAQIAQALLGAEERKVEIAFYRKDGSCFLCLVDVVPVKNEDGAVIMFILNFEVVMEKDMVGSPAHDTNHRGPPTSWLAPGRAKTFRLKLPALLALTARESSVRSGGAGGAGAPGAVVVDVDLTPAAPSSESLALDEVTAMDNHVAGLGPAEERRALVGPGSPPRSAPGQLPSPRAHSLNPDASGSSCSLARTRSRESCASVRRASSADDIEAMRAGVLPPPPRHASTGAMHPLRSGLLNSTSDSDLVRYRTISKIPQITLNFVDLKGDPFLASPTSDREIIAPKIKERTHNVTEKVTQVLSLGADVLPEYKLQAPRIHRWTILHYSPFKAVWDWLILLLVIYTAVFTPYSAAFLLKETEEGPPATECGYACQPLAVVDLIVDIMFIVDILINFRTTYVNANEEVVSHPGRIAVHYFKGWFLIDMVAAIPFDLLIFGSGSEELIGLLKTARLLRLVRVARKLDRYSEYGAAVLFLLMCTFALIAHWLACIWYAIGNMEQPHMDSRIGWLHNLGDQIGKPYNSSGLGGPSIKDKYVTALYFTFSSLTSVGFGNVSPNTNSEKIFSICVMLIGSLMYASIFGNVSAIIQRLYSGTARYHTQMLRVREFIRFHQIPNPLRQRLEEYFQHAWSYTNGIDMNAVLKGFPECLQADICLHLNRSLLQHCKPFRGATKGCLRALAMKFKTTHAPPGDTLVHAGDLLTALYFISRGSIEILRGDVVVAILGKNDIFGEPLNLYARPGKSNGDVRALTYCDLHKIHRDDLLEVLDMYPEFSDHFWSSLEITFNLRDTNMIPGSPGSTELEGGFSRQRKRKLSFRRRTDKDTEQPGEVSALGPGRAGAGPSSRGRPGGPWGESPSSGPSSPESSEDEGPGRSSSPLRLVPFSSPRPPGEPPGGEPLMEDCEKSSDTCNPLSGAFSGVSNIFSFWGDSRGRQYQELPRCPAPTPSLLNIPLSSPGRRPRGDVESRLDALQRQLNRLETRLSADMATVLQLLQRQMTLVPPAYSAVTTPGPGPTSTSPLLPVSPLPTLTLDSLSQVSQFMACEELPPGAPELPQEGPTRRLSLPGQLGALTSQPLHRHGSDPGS

Chain of Histamine H3 receptor (Homo sapiens, UniProt Q9Y5N1) (Q9Y5N1 whole entry): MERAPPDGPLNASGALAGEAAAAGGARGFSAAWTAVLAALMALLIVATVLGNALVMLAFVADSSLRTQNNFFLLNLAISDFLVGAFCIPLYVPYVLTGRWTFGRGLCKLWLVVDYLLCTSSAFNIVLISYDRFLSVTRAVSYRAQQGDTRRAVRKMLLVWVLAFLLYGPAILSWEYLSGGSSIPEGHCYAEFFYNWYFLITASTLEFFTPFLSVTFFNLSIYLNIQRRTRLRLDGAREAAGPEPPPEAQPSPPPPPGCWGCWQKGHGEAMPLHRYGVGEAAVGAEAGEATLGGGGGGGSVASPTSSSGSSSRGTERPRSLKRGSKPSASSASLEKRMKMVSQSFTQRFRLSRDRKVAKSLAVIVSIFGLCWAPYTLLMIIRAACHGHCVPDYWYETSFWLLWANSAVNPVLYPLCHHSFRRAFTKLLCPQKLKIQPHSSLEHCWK

Usually Ki stands for a dissociation constant, usually derived from enzyme kinetics or from competition with a known ligand. For the compound `c1ccc(COc2ccc3c(c2)CCNCC3)cc1`, the Ki in [1] is above 10000 nM.
Turning to `c1cc2c(cc1OCCN1CCCCC1)CCN(CC1CC1)CC2`, the Ki was above 2000 nM in [2] and 0.794 nM in data set [1].
Regarding `c1cc2c(cc1OCCCN1CCOCC1)CCNCC2`, in data set [1], the Ki was 100 nM.
In the case of `OC1CCN(CCCOc2ccc3c(c2)CCNCC3)CC1`, in data set [1], the Ki was above 10000 nM.
Consider `c1ccc(N2CCc3ccc(OCCCN4CCCCC4)cc3CC2)cc1`, for which the values for the Ki in [2] and in data set [1] were 1000 nM and 10 nM, respectively.
For orientation: IC50 means the point on the concentration scale where inhibition reaches its midpoint. High values mean lower potency, low ones higher potency. With `c1ccc(COc2ccc3c(c2)CCN(C2CCC2)CC3)cc1`, the CLH in [3] is 12 mL/min/g; in [5], above 50 mL/min/g. This compound came in with an IC50 in data set [4] of 0.6 µM. The inhibition constant (Ki) in [1] was 0.251 nM.
Take `FC1(F)CCN(CCCOc2ccc3c(c2)CCNCC3)CC1`: the inhibition constant (Ki) in data set [1] is above 398 nM.
As to `c1cc2c(cc1OC1CCNCC1)CCN(C1CCC1)CC2`, the CLH is 0.5 mL/min/g in data set [3] and 1.2 mL/min/g in data set [5]. Besides, in data set [1], the Ki is 0.316 nM.
Take `c1cc2c(cc1OCCN1CCCCC1)CCNCC2`: in data set [1], the inhibitory constant (Ki) is 158 nM.
On to `O=C(c1ccc(Cl)cc1)N1CCC(Oc2ccc3c(c2)CCN(C2CCC2)CC3)CC1`, for which the CLH in [3] is 0.8 mL/min/g; in data set [5], 2.9 mL/min/g. Moreover, the Activity in [6] was determined as 89%. Further, in [1], the Ki was 0.501 nM.
With `c1ccc(COc2ccc3c(c2)CCN(Cc2ccccc2)CC3)cc1`, in data set [1], the Ki is above 1000 nM.
For the compound `c1cc2c(cc1OCC1CCNCC1)CCN(C1CCC1)CC2`, the CLH in [3] amounted to 0.9 mL/min/g; in data set [5], 0.7 mL/min/g. In addition, the IC50 in [4] is 19 µM. The Activity in [6] came to 44%. Moreover, the Ki in data set [1] is 0.501 nM.
Regarding `CC(C)CN1CCc2ccc(OCc3ccccc3)cc2CC1`, the Ki in data set [1] is 25.1 nM.
As to `c1cc2c(cc1OCCCN1CCCCC1)CCN(CC1CCCO1)CC2` (centres undefined), the Ki in data set [2] is 2000 nM; in data set [1], 0.501 nM.
For `CC(=O)N1CCc2ccc(OCCCN3CCCCC3)cc2CC1`, the Ki in [1] was 15.8 nM.
For the compound `c1ccc(COc2ccc3c(c2)CCN(CC2CC2)CC3)cc1`, the CLH in [3] is 11 mL/min/g; in data set [5] it was above 50 mL/min/g. Half-maximal inhibition in data set [4] (IC50) required 1.5 µM. In addition, the Ki in data set [2] was 1000 nM; in data set [1] it was 10 nM.
As to `c1ccc(COc2ccc3c(c2)CCN(C2CCCC2)CC3)cc1`, the CLH is 19 mL/min/g in data set [3] and above 50 mL/min/g in data set [5]. In addition, the IC50 in data set [4] is 0.6 µM. The Ki in [1] is 0.794 nM.
In the case of `O=C(N[C@H]1CCN(Cc2ccc(OCCCN3CCCCC3)cc2)C1)c1ccc2c(c1)OCO2`, the Activity amounted to 78% in [7] and 96% in data set [8]. The Ki is above 2510 nM in data set [2] and 0.0251 nM in data set [1].
In the case of `CS(=O)(=O)N1CCC(Oc2ccc3c(c2)CCN(C2CCC2)CC3)CC1`, the CLH was found to be 0.5 mL/min/g in data set [3] and 2.9 mL/min/g in data set [5]. This compound also registered a concentration for half-maximal inhibition (IC50) in data set [4] of 13 µM. Further, the Activity in data set [6] turned out to be 6%. In [1], the Ki is 0.794 nM.
The term clearance denotes the volume of plasma or blood freed of the substance per unit of time. One may read the Kp as the ratio of the level in a tissue or fluid to that in plasma or blood. A word on the ED50: it is the midpoint of the dose-response relation. A higher ED50 goes with a need for a large dose. By logD is commonly meant the decadic logarithm of the distribution of all forms, ionised or not, between an organic phase and buffer at a given pH. Usually pKa stands for the pH at which an ionisable group is half protonated. The term inhibition denotes the share of the control response that was lost under treatment. A high value points to a strong effect. With `O=C(N1CCOCC1)N1CCC(Oc2ccc3c(c2)CCN(C2CCC2)CC3)CC1`, in data set [9], the half-life is 72 min. For the same compound, the Vd in data set [10] came out at 4.6 L/kg. For the same compound, in data set [11], the clearance is 63 mL/min/kg. Also, the Kp at 2 h in [12] amounted to 1.1. Further, the concentration at 2 h was found to be 470 nM in data set [13] and 530 nM in data set [14]. This compound gave an ED50 in data set [15] of 2.2 mg/kg. This compound also showed a logD in data set [16] of 2.2. In data set [17], this compound showed a pKa of 9.2. In addition, the inhibition constant (Ki) in data set [18] is 12.6 nM; in data set [1], 1 nM. Moreover, the CLH was determined as 0.9 mL/min/g in [3] and 1.1 mL/min/g in [5]. For the same compound, the Activity in data set [6] turned out to be 100%; in [8], 49%. This compound showed an inhibition at 10 µM in [19] below 30%.
In the case of `c1ccc(COc2ccc3c(c2)CCN(C2CC2)CC3)cc1`, the Ki in data set [1] is 5.01 nM.
In the case of `c1cc2c(cc1OCCCN1CCCCC1)CCNCC2`, the Ki is 1260 nM in [2] and 3.98 nM in data set [1].
For the compound `CN(C)CCCOc1ccc2c(c1)CCNCC2`, the Ki in [1] is 100 nM.
In the case of `Cc1cc(C(=O)N2CCC(Oc3ccc4c(c3)CCN(C3CCC3)CC4)CC2)no1`, the CLH in [3] stood at 1.2 mL/min/g; in [5], 3.5 mL/min/g. The compound also came in with a 50% inhibitory concentration (IC50) in data set [4] of 43 µM. In addition, the Activity in data set [6] is reported as 11%. The Ki in data set [1] is 1.58 nM.
For the compound `c1cc2c(cc1OCCCN1CCCCC1)CCNC2`, in [1], the Ki is 2.51 nM.
Still for that read-out and setting: with `CC(C)N1CCc2ccc(OCc3ccccc3)cc2CC1` the figure was 20 nM.
Take `c1ccc(COc2ccc3c(c2)CCN(C2CCCCC2)CC3)cc1`: the inhibition constant (Ki) in [1] was 10 nM.
Turning to `O=C(c1ccc(OCCCc2cnc[nH]2)cc1)C1CC1` [CIPROXIFAN], the results for the Activity in data set [6] and in [8] were 100% and 80%, respectively. Also, the Ki in data set [2] is above 2510 nM.
Turning to `Cn1c(=O)ccc2cc(COc3ccc4c(c3)CCN(C3CCC3)CC4)ccc21`, the results for the CLH in data set [3] and in data set [5] were 3.4 mL/min/g and 2.5 mL/min/g, respectively. Further, the IC50 in data set [4] was determined as 4.2 µM. Moreover, the Ki in [1] was 0.398 nM.
Turning to `CN1CCc2ccc(OCc3ccccc3)cc2CC1`, the Ki in [1] was 316 nM.
On to `CC(C)N1CCC(Oc2ccc3c(c2)CCNCC3)CC1`, for which the Ki in [2] was above 2510 nM; in data set [1], 2.51 nM.
Regarding `c1cc2c(cc1OCCCN1CCCCC1)CCN2`, the Ki in data set [1] is 15.8 nM.
As for `c1cc2c(cc1OCCCN1CCCCC1)CCN(CC1CC1)CC2`, the values for the Ki in data set [2] and in data set [1] were 2000 nM and 0.501 nM, respectively.
